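These data come from cells grown in 96-well plates and exposed to compound for 48 hours at five concentrations. Here, GI50 denotes the concentration required for 50% inhibition of growth. At the TGI there is no net growth.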
How the values were obtained:
Experiment in all cases: growth of human tumour cells (NCI), 48 h
[1] = system: EKVX NSCLC
[2] = system: UACC-62 melanoma
[3] = system: TK-10 renal
[4] = system: HCC-2998 colon
[5] = system: UACC-257 melanoma
[6] = system: HS 578T breast
[7] = system: SF-268 CNS
[8] = system: HT29 colon
[9] = system: NCI-H23 lung
[10] = system: NCI-H226 lung

| SMILES | GI50 [1] [µM] | TGI [1] [µM] | GI50 [2] [µM] | TGI [2] [µM] | GI50 [3] [µM] | GI50 [4] [µM] | GI50 [5] [µM] | TGI [5] [µM] | GI50 [6] [µM] | TGI [6] [µM] | GI50 [7] [µM] | TGI [7] [µM] | GI50 [8] [µM] | TGI [8] [µM] | GI50 [9] [µM] | TGI [9] [µM] | GI50 [10] [µM] | TGI [10] [µM] | TGI [3] [µM] | TGI [4] [µM] |
| --- | --- | --- | --- | --- | --- | --- | --- | --- | --- | --- | --- | --- | --- | --- | --- | --- | --- | --- | --- | --- |
| C#CC1(O)C(COP(=O)(O)OCC2OC(n3cc(F)c(=O)[nH]c3=O)CC2O)OC(n2ccc(N)nc2=O)C1O (stereo unspecified) | 0.529 | > 29.8 | < 0.0141 | 0.372 | 0.01 | < 0.01 | 0.114 | > 23.1 | < 0.0265 | 8.44 | < 0.01 | 5.81 | < 0.01 | > 100 | < 0.0139 | 0.449 | < 0.01 | > 100 |  |  |
| N#Cc1nc(C#N)c(Sc2ccccc2)c(Sc2ccccc2)c1Sc1ccccc1 | 1.25 | > 100 | 1.37 | 3.2 | 0.502 | 2.24 | 1.37 | 2.94 | 0.463 | > 100 | 0.331 | 1.03 | 0.407 |  | 0.36 | 2.35 | 2.42 |  | 3.43 | 4.66 |
| CC(=O)/C(Br)=C/c1ccc(Br)o1 | 14.6 | 28.1 | 14 | 28.3 | 5.42 | 19 | 6.05 | 19.2 | 2.39 | 7.22 | 7.58 | 23.6 | 4.21 | 14.6 | 12.1 | 41.7 | 12.7 | 26.2 | 17.9 | 36.7 |
| COS(C)(=O)=O |  | > 2 |  | > 2 |  |  |  | > 2 |  | > 2 |  | > 2 |  | > 2 |  | > 2 |  | > 2 | > 2 | > 2 |
| Oc1[nH]c2ccccc2c1/C=c1/ccc2c(c1)N=C(c1ccc(C(F)(F)F)cc1)N=2 | 4.34 | 16.9 | 2.62 | 15.8 | 10.4 | 3.77 | 7.4 | 21.5 | 3.09 | 12.7 | 3.46 | 11.9 | 1.61 | 11.3 | 3.39 | 15.7 | 14.5 | 30.5 | 22.2 | 16.2 |
| CCN(CC)CCN1c2nc3ccccc3cc2Sc2cc3ccccc3nc21 | 4.49 | 17.9 | 1.77 | 4.37 | 3.54 | 1.69 | 2.04 | 4.06 | 1.73 | 4.61 | 3.34 | 13 | 1.21 | 3.06 | 2.51 | 10.6 | 3.31 | 14.2 | 8.74 | 3.72 |

Reference: PubChem BioAssay (NCI)
